Here are results for five molecules from patent US8338480B2, “Combination treatment of metabolic disorders” (Wellstat Therapeutics Corporation, priority 2006, dated 2012).

Structures can show the parent of a compound that is named as a salt.

Type in all cases: in vivo
One assay relates to Male C57B1/6 mice. In words: Food intake and body weight of male C57Bl/6 mice under restricted feeding (Example 3). As to conditions: for Post-treatment Food Intake (5 Hour): 5 hour meal; for food intake (in words): restricted feeding paradigm; for Change in Body weight % / Change in Body weight (grams ± SEM) / Post-treatment Body weight: restricted feeding. The protocol:
Animals. […] Food was withheld for the remainder of each day. Because of the restricted feeding time, the mice eat less than under ad libitum food availability. Therefore, reduction of food intake in this model requires a drug effect sufficient to overcome the hunger stimulus provided by subnormal daily food intake. Drug Administration. Groups of 10 mice each (individually weighed and marked, divided into 5/cage and trained and monitored as above; were dosed once per day with Compound BI (100 mg/kg), rosiglitazone (3 mg/kg), both drugs, or vehicle by oral gavage at 8 AM for four consecutive days. Comparator groups receiving appetite modulators not suitable for oral dosing (PYY and cerulenin) received intraperitoneal injections at 8 AM for four consecutive days. […] [table]

For assay [1], the system named is db/db mice. The assay is described as follows: Serum glucose in db/db mice after two weeks (Example 4). As to conditions: compound alone 100 mg/kg. As for the experimental part: (§1) • 8. Vehicle (1% hydroxypropylmethylcellulose) • 9. Compound BI 100 mg/kg • 10. Rosiglitazone (RSG) 3 mg/kg • 11. Compound BI 100 mg/kg+RSG 3 mg/kg • 12. Compound CF 100 mg/kg • 13. Compound CF 100 mg/kg+RSG 3 mg/kg • 14. Compound CT 100 mg/kg+RSG 3 mg/kg • 15. […]
(§2) After two weeks, blood samples were collected from the retro-orbital sinus and processed for serum chemistry measurements.

A further assay has as its system Adiponectin. In words: Serum adiponectin in db/db mice after two weeks (Example 4). Conditions: for Adiponectin ± SD: db/db mice serum, compound alone 100 mg/kg; for effect on adiponectin with concurrent rosiglitazone (in words) / serum adiponectin, individual agents (in words): db/db mice; for effect on adiponectin with concurrent rosiglitazone (in words): 100 mg/kg + RSG 3 mg/kg; for serum adiponectin, individual agents (in words): agent alone.
Description: Adiponectin is an glycoprotein secreted from white adipose tissue. Adiponectin improves insulin sensitive in other tissues, e.g. muscle and liver, and is also protective against atherosclerosis. Thiazolidinedione antidiabetic agents such as rosiglitazone or pioglitazone act largely via action at the PPAR-gamma, a nuclear receptor involved in regulation of fuel metabolism. PPAR-gamma agonists enhance adiponectin production by adipose tissue, and this may contribute to their beneficial effects in diabetes and related metabolic disorders.
as §1, §2

For assay [2], the system named is db/db mice. In words: Serum glucose in db/db mice, combinations with rosiglitazone or pioglitazone, 4 weeks (Example 5). As to conditions: 4 weeks oral once per day. As for the experimental part:
Male db/db mice have a defect in the receptor for the appetite-regulating protein leptin and consequently develop hyperphagia, obesity, insulin resistance, hyperglycemia, hypertriglyceridemia. Male db/db mice are an accepted animal model for Type II diabetes. The effect of a range of single daily doses of orally administered Compound BI was assessed in this model, and the efficacy of rosiglitazone alone and in combination with Compound BI was also examined.
Male C57BL/Ksola db/db mice (“db/db mice”) were obtained from Harlan (Indianapolis, Ind.) and allowed to acclimate for a minimum of one week.
Body weights and blood glucose levels were measured and animals were sorted groups of 6-7 mice with equivalent mean body weights in each group. […].
• 12. Vehicle • 13. Compound BI 100 mg/kg/day • 14. Rosiglitazone 3 mg/kg • 15. Rosiglitazone 3 mg/kg+Compound BI 100 mg/kg • 16. Pioglitazone 30 mg/kg • 17. Pioglitazone 30 mg/kg+Compound BI 100 mg/kg • 18. Pioglitazone 100 mg/kg • 19. Pioglitazone 100 mg/kg+Compound BI 100 mg/kg
Drug preparation: Compound BI was suspended in a vehicle comprising 1% aqueous hydroxypropylmethylcellulose, using a tissue homogenizer to minimize particle size and maximize uniformity of the suspension. Pioglitazone and rosiglitazone were suspended in the same vehicle after pulverization of commercial tablets of each of these drugs. Drug concentrations in the dosing suspension for each treatment group were adjusted according to body weights so that a constant volume of 0.4 ml provided appropropriate drug doses in all groups.
Drug Administration: Drugs were administered orally by gavage once per day for 28 days.
Blood sampling: For serum chemistry analysis, nonfasting blood samples (200 microliters) were obtained via the retro-orbital sinus and collected in serum separator tubes at 11 AM on day 28 after initiation of drug administration.

Where [3] appears, read: Cerulenin 30 mg/kg i.p. once per day.
[4] abbreviates: PYY 100 mg/kg i.p. once per day.

In the case of `C/C=C/C/C=C/CCC(=O)[C@H]1O[C@H]1C(N)=O` [Cerulenin], in the assay with Male C57B1/6 mice (setting [3]), the “Post-treatment Food Intake (5 Hour)” value was determined as 2.45 ± 0.10 grams, the “Change in Body weight %” value is on record as “+0.81 ± 0.49%”, the “Change in Body weight (grams ± SEM)” value was “+0.16 ± 0.10 grams” and the “Post-treatment Body weight” value is 21.18 ± 0.66 grams. The “food intake (in words)” value in the assay with Male C57B1/6 mice is given as “failed to have an effect”.

Take `Cc1cccc(C)c1COc1cccc(CC(=O)NO)c1` [Compound CT, N-Hydroxy-2-[3-(2,6-dimethylbenzyloxy)phenyl]acetamide]: the “Glucose ± SD” value in the assay with db/db mice [1] worked out at 235 ± 107 mg/dL. In the assay with Adiponectin, the “Adiponectin ± SD” value is given as 5.4 ± 1.5 micrograms/ml; the “effect on adiponectin with concurrent rosiglitazone (in words)” value was “strongly amplify the effect of concurrent rosiglitazone on adiponectin”; the “serum adiponectin, individual agents (in words)” value was “did not elevate serum adiponectin levels”.

For `CCc1ccc(CCOc2ccc(CC3SC(=O)NC3=O)cc2)nc1` (centres unmarked) [PIO, pioglitazone hydrochloride], the “Serum Glucose (mg/dL) Mean ± SD” value was 550 ± 74 mg/dL in the assay on db/db mice [2] (PIO 30 mg/kg) and 597 ± 228 mg/dL with db/db mice [2] (PIO 100 mg/kg).

Take `Cc1cccc(C)c1COc1cccc(CC(=O)O)c1` [Compound CF, 3-(2,6-Dimethylbenzyloxy)phenylacetic acid]: the “Glucose ± SD” value in the assay with db/db mice [1] came to 305 ± 75 mg/dL. In addition, in the assay on Adiponectin, the “Adiponectin ± SD” value is 6.5 ± 2.0 micrograms/ml; the “effect on adiponectin with concurrent rosiglitazone (in words)” value is “strongly amplify the effect of concurrent rosiglitazone on adiponectin”; the “serum adiponectin, individual agents (in words)” value is listed as “did not elevate serum adiponectin levels”.

Take Peptide YY fragment 3-36 human [PYY]: in the assay with Male C57B1/6 mice (setting [4]), the “Post-treatment Food Intake (5 Hour)” value was 2.28 ± 0.25 grams, the “Change in Body weight %” value is listed as −0.96 ± 0.50%, the “Change in Body weight (grams ± SEM)” value is on record as −0.20 ± 0.10 grams and the “Post-treatment Body weight” value is given as 20.86 ± 0.33 grams. Moreover, the “food intake (in words)” value with Male C57B1/6 mice is “failed to have an effect”.
